Test results as given in patent publication US11332564B2, “Method to produce stimuli sensitive UV absorbing polymers” (GALAXY SURFACTANTS LTD, priority 2020, dated 2022).

What was measured:
[1] = Photo-degradation study of cream formulations under UV lamp, 200 h; assay type: physicochemical; conditions: Cream of Example VIII (10% copolymer of Example II)
[2] = as above; assay type: physicochemical; conditions: Cream Example VII (without copolymer of Example II)
Procedure: Example VII is a cream formulation with OMC and Avobenzone is exposed for 200 h using UV light from a UV lamp.

[3] = commercial UV absorbers; cited from earlier work
[4] = UV absorption (E1%cm, extinction, λmax) by absorption spectrophotometer; assay type: physicochemical; conditions: for E1%cm: at λmax 310 nm
Procedure: (§1) p-Methoxy cinnamido propyl dimethyl amine was obtained from Galaxy Surfactants Ltd., Mumbai. Vinyl benzyl chloride was purchased from Seimi Chemical Co., Ltd. Japan. N, N-Diethyl acrylamide was obtained from Sigma Aldrich, India. N-isoproyl acrylamide was synthesized as per the literature procedure (Polym. J., Vol. 25, No. 6, pp. 561-567). Surface tension was measured on Kruss tensiometer by Wilhelmy plate method. Intrinsic viscosity was measured by Ubbelohde viscometer. NMR spectroscopy was done on 400 MHz Bruker machine. Infrared spectra were recorded on FTIR from Perkin Elmer (Spectrum 100). UV Varian's, Cary 50 absorption spectrophotometer was used for UV absorption data.

[5] = Surface tension, Kruss tensiometer, Wilhelmy plate method; assay type: physicochemical
Procedure: as §1

| Structure (SMILES) | Component content, UV exposure 200 h [1] | Component content, Unexposed [1] | Component content, Zero h [1] | Component content, UV exposure 200 h [2] | Component content, Unexposed [2] | Component content, Zero h [2] | λmax [3] | molar extinction coefficient ([4]; at 290 nm) | Surface tension of 1% aqueous solution [5] | E1%cm [4] | E1%cm ([4]; listed as Step (a) of Example I) |
| --- | --- | --- | --- | --- | --- | --- | --- | --- | --- | --- | --- |
| CCCCC(CC)COC(=O)C=Cc1ccc(OC)cc1 (stereo not drawn) [OMC, Octyl methoxy cinnamate] | 4.5% | 6.0% | 6.0% | 2% | 6.0% | 6% | 302 nm |  |  |  |  |
| COc1ccc(C=CC(=O)NCCCN(C)C)cc1 [Formula IIa, p-methoxy cinnamidopropyl dimethyl amine] |  |  |  |  |  |  |  | 24,000 |  |  |  |
| C=Cc1ccc(C[N+](C)(C)CCCNC(=O)/C=C/c2ccc(OC)cc2)cc1 [Formula IVa, p-methoxy cinnamido propyl p-vinyl benzyl dimethyl ammonium chloride] |  |  |  |  |  |  |  |  | 42.6 mN/m | 568 | 463 |
| COc1ccc(C(=O)CC(=O)c2ccc(C(C)(C)C)cc2)cc1 [Avobenzone] | 1.5% | 2.0% | 2.0% | 0.1% | 2.0% | 2.0% | 360 nm |  |  |  |  |
